Common to all, as to format: physicochemical
Data set [1] is described as follows: Dissolving power for UV filters (statement in words). The note with it: for dissolving properties for UV filters: general statement; for dissolving power for UV filters: in contrast to other high-spreading oils, for example dialkyl ethers or cyclomethicone.
A further data set in a line: Zeidler spreading value. An excerpt: in which R^1 and R^2 independently of one another represent linear or branched alkyl and/or alkenyl groups containing 1 to 22 carbon atoms, with the proviso that they contain in all at least 12, preferably 12 to 50 and more preferably 15 to 25 carbon atoms. The compounds are obtained by transesterifying dimethyl or diethyl carbonate, for example, with the corresponding fatty alcohols in known manner. Accordingly, the fatty carbonates may be symmetrical or non-symmetrical. However, carbonates in which R^1 and R^2 are the same and represent C6-16 alkyl groups are preferably used. Transesterification products of dimethyl or diethyl carbonate with octanol, 2-ethylhexyl alcohol, decanol, cetyl alcohol, cetearyl alcohol, stearyl alcohol, isostearyl alcohol, oleyl alcohol, behenyl alcohol and/or erucyl alcohol in the form of their mono- and diesters or technical mixtures and Guerbet alcohols containing 8 to 24 carbon atoms are particularly preferred. […] The dialkyl carbonates may be used in quantities of 1 to 30% by weight, preferably 5 to 20% by weight and more preferably 8 to 10% by weight, based on the composition.

A short description of data set [2]: High-spreading property (statement in words). The settings on record: general statement.
Data set [3] is described as follows: Volatility of the oil (remark in Table 1). The note with it: remark at Zeidler spreading value.

The record followed here is US6280712A, “Sun screen agents” (Cognis Deutschland GmbH, priority 1997, dated 2001).

Bounds are passed on as bounds.

With `CCCCC(CC)COC(=O)OCC(CC)CCCC` (stereo not shown) [di-2-ethylhexyl carbonate], in data set [1], the “dissolving properties for UV filters” value is listed as “excellent dissolving properties for UV filters” and the “dissolving power for UV filters” value is given as “distinctly higher dissolving power for UV filters”. This compound also gave a Zeidler spreading value in “Zeidler spreading value” of 1600 mm^2/10 mins. Further, the spreading result in data set [2] is reported as “high-spreading”.
With `CCCCCCCCOC(=O)OCCCCCCCC` [di-n-octyl carbonate], in data set [1], the “dissolving properties for UV filters” value is on record as “excellent dissolving properties for UV filters” and the “dissolving power for UV filters” value was “distinctly higher dissolving power for UV filters”. Besides, in the data set “Zeidler spreading value”, the Zeidler spreading value is reported as 1600 mm^2/10 mins. Further, the spreading entry in data set [2] is given as “high-spreading”.
The compound Cyclomethicone [reference compound] had a Zeidler spreading value in the data set “Zeidler spreading value” of over 1600 mm^2/10 mins. The volatility result in data set [3] was “volatile”.
